Results from article PMC8309759, “A Dual-Sensor-Based Screening System for In Vitro Selection of TDP1 Inhibitors” (Sensors (Basel, Switzerland), 2021).
Read-outs that look alike come from different tables or passages of the source.

What was measured:
[1] = molecular target: T1, topoisomerase 1 (TOP1) (Homo sapiens, UniProt P11387); experiment: REEAD cleavage-ligation assay with purified TOP1, […] CPT; assay type: biochemical
T1 sequence (P11387 2-765): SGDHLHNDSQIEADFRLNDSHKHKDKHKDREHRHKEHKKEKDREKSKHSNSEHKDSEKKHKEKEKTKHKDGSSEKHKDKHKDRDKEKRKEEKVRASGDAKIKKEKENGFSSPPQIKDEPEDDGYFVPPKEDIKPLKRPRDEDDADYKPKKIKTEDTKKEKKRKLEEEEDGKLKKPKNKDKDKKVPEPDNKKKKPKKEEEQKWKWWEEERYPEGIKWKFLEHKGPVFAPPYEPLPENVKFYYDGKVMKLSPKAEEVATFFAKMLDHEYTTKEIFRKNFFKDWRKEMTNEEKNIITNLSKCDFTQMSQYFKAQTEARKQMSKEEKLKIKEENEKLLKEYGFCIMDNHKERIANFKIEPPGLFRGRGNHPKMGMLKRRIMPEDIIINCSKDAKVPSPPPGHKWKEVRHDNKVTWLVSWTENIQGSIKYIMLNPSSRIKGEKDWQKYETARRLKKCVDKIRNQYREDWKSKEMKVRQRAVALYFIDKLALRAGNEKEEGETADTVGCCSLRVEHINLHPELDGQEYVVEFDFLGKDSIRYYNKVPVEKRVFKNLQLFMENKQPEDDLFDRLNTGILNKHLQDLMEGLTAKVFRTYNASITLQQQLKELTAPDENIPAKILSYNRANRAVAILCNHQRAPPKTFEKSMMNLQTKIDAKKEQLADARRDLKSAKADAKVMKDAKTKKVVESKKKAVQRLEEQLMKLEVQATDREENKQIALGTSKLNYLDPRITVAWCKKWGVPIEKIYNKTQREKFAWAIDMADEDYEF

[2] = molecular target: tyrosyl-DNA phosphodiesterase 1 (TDP1) (Homo sapiens, UniProt Q9NUW8); experiment: fluorescent hairpin DNA sensor (ATTO488/BHQ1) assay with purified human TDP1, 13-point dose response; assay type: biochemical
tyrosyl-DNA phosphodiesterase 1 (TDP1), sequence (Q9NUW8 whole entry): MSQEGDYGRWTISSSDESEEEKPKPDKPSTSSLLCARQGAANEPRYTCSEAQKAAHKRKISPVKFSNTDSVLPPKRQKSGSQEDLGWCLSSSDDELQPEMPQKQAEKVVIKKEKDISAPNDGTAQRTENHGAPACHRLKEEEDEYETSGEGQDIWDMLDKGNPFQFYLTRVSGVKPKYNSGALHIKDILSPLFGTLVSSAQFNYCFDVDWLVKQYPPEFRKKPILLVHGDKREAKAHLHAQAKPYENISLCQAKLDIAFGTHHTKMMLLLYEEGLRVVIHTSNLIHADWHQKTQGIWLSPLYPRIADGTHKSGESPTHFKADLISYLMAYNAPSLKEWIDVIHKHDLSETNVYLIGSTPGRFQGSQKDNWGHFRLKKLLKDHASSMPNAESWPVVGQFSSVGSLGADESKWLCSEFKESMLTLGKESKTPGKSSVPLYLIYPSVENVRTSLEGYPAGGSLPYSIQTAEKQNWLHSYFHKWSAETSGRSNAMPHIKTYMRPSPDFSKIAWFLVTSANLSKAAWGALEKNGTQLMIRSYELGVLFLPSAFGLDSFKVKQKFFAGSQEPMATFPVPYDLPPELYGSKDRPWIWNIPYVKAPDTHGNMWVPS

Row | SMILES | IC50 [2] [µM] | other results
1 | CC[C@@]1(O)C(=O)OCc2c1cc1n(c2=O)Cc2cc3ccccc3nc2-1 [CPT, camptothecin] | – | REEAD cleavage-ligation assay with purified TOP1, 80 μM CPT [1]: CPT control is a positive control for TOP1 inhibition.
2 | COc1ccc(-c2cc(-c3ccc([N+](=O)[O-])cc3)nc3cccnc23)cc1 [NAF-15] | – | IC50 ([2]; read-out: IC50): 37.8 µM
3 | O=[N+]([O-])c1ccc(C2CC(c3ccccc3)c3cccc(P(=S)(c4ccccc4)c4ccccc4)c3N2)cc1 (stereo not shown) [PSTHQ-13] | 13.1 | –
4 | FC(F)(F)c1ccc(C2CC(c3ccccc3)c3cccc(P(=S)(c4ccccc4)c4ccccc4)c3N2)cc1 (stereo not shown) [PSTHQ-2] | 4.28 | –
